Laboratory results from patent publication US20130029970A1 (priority 2009, published 2013).

Columns and labels:
human CB2 receptors = molecular target: T1, human CB2 receptors (Homo sapiens, UniProt P34972); assay: cAMP assay in HEK-293 cells, hCB2 agonist; format: cell-based; conditions: inhibition of forskolin-stimulated cAMP, HEK-293 cells; read-out: hCB2 EC50 (cAMP ag)
T1 construct: (cDNA clone) CNR0200000
Procedure, shortened: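 HEK-293 cells stably expressing human CB2, suspended at 1,500,000 cells/mL in HBSS with 10 mM HEPES and 0.1% fatty-acid-free BSA, exposed to test compound plus forskolin (90 uM in the 3× compound solution) for 30 min at 37° C.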

[1] = molecular target: T2, recombinant human cannabinoid receptor CB2 (Homo sapiens, UniProt P34972); assay: Cannabinoid receptor radioligand binding assay, [3H]-CP 55,940 displacement, hCB2
T2 construct: (cDNA clone) CNR0200000
Procedure, shortened: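 Membranes from hCB2-transfected cells, prepared by 1000×g then 40,000×g centrifugation, resuspended in 20 mM HEPES pH 7.4, 5 mM MgCl2, 1 mM EDTA, 10% sucrose.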

human CB2 (hCB2) = molecular target: T3, human CB2 (hCB2) (Homo sapiens, UniProt P34972); assay: 35S GTPγS binding assay, hCB2 agonist; format: biochemical; conditions: GTPγS agonist, HEK-293 membranes; read-out: hCB2 EC50 (GTPyS ag)
T3 construct: (cDNA clone) CNR0200000
Procedure, shortened: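 Membranes (5 μg) from cells transfected with hCB2 cDNA in pcDNA3.1+ incubated with SPA beads, 0.1 nM [35S]GTPγS and 20 uM GDP in 50 mM HEPES pH 7.4, 100 mM NaCl, 5 mM MgCl2, 0.001% saponin, ± test compound. Incubation 90 min at room temperature; bound label read by scintillation counting.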

T3 sequence (P34972 whole entry): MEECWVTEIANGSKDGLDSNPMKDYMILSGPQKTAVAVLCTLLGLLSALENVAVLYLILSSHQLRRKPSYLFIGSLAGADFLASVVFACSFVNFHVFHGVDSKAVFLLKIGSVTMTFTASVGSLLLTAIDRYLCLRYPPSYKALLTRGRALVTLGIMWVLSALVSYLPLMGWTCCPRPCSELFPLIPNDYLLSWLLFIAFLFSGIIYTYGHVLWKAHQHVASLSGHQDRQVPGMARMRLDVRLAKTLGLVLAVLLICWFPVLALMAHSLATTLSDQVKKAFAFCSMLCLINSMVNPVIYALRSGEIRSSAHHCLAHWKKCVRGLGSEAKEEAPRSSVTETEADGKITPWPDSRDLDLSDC
T2 sequence (P34972 whole entry): as above
T1 sequence (P34972 whole entry): as above

| SMILES | EC50 (human CB2 receptors) [nM] | IC50 [1] [nM] | EC50 (human CB2 (hCB2)) [nM] |
| --- | --- | --- | --- |
| Cc1cc2cc(Cc3cccc(Cl)c3Cl)sc2n1CCN1CCOCC1 [Compound 32, 4-(2-(2-(2,3-Dichlorobenzyl)-5-methyl-6H-thieno[2,3-b]pyrrol-6-yl)ethyl)morpholine] | < 100 | < 100 | < 100 |
| Cc1cc2cc(C(=O)c3cccc(Cl)c3Cl)sc2n1CCCNS(C)(=O)=O [Compound 37, N-(3-(2-(2,3-Dichlorobenzoyl)-5-methyl-6H-thieno[2,3-b]pyrrol-6-yl)propyl)methanesulfonamide] | < 100 | < 100 | < 100 |
| Cc1cc2cc(C(=O)c3cccc(Cl)c3Cl)sc2n1S(=O)(=O)C(C)C [Compound 38, (2,3-Dichlorophenyl)(6-(isopropylsulfonyl)-5-methyl-6H-thieno[2,3-b]pyrrol-2-yl)methanone] | < 100 | < 100 | < 100 |
| CCS(=O)(=O)n1c(C)cc2cc(C(=O)c3ccccc3Cl)sc21 [Compound 42, (2-Chlorophenyl)(6-(ethylsulfonyl)-5-methyl-6H-thieno[2,3-b]pyrrol-2-yl)methanone] | < 100 | 100 to 1000 | < 100 |
| CCS(=O)(=O)n1c(C)cc2cc(C(=O)c3cccnc3Cl)sc21 [Compound 43, (2-Chloropyridin-3-yl)(6-(ethylsulfonyl)-5-methyl-6H-thieno[2,3-b]pyrrol-2-yl)methanone] | < 100 | 100 to 1000 | < 100 |
| COc1ccc(C(=O)c2cc3cc(C)n(CCCNS(C)(=O)=O)c3s2)cc1 [Compound 44, N-(3-(2-(4-methoxybenzoyl)-5-methyl-6H-thieno[2,3-b]pyrrol-6-yl)propyl)methanesulfonamide] | < 100 | < 100 | < 100 |
| Cc1cc2cc(C(=O)c3cccc(Cl)c3Cl)sc2n1S(=O)(=O)N1CCOCC1 [Compound 45, (2,3-Dichlorophenyl)(5-methyl-6-(morpholinosulfonyl)-6H-thieno[2,3-b]pyrrol-2-yl)methanone] | < 100 | < 100 | < 100 |
| Cc1cc2cc(C(=O)c3cccc(Cl)c3Cl)sc2n1S(=O)(=O)CC1CCOCC1 [Compound 46, (2,3-Dichlorophenyl)(5-methyl-6-((tetrahydro-2H-pyran-4-yl)methylsulfonyl)-6H-thieno[2,3-b]pyrrol-2-yl)methanone] | < 100 | < 100 | < 100 |
| COc1ncccc1C(=O)c1cc2cc(C)n(CCN3CCOCC3)c2s1 [Compound 47, (2-Methoxypyridin-3-yl)(5-methyl-6-(2-morpholinoethyl)-6H-thieno[2,3-b]pyrrol-2-yl)methanone] | < 100 | 1000 to 10000 | 100 to 1000 |
| COc1ccc(C(=O)c2cc3cc(C)n(S(=O)(=O)N(C)C)c3s2)cc1 [Compound 51, 2-(4-Methoxybenzoyl)-N,N,5-trimethyl-6H-thieno[2,3-b]pyrrole-6-sulfonamide] | < 100 | < 100 | < 100 |
| COc1ccc(C(=O)c2cc3cc(C)n(S(=O)(=O)N4CCOCC4)c3s2)cc1 [Compound 53, (4-methoxyphenyl)(5-methyl-6-(morpholinosulfonyl)-6H-thieno[2,3-b]pyrrol-2-yl)methanone] | < 100 | < 100 | < 100 |
| Cc1cc2cc(C(=O)c3ccc(F)cc3)sc2n1CCN1CCOCC1 [Compound 54, (4-Fluorophenyl)(5-methyl-6-(2-morpholinoethyl)-6H-thieno[2,3-b]pyrrol-2-yl)methanone] | < 100 | 100 to 1000 | < 100 |
| CCS(=O)(=O)n1c(C)cc2cc(C(=O)c3ccc(OC)cc3)sc21 [Compound 56, (6-(Ethylsulfonyl)-5-methyl-6H-thieno[2,3-b]pyrrol-2-yl)(4-methoxyphenyl)methanone] | < 100 | 100 to 1000 | < 100 |
| COc1ccc(C(=O)c2cc3cc(C)n(S(=O)(=O)CC4CCOCC4)c3s2)cc1 [Compound 57, (4-Methoxyphenyl)(5-methyl-6-((tetrahydro-2H-pyran-4-yl)methylsulfonyl)-6H-thieno[2,3-b]pyrrol-2-yl)methanone] | < 100 | < 100 | < 100 |
| COc1ccc(C(=O)c2cc3cc(C)n(CCN4CCOCC4)c3s2)cn1 [Compound 58, (6-Methoxypyridin-3-yl)(5-methyl-6-(2-morpholinoethyl)-6H-thieno[2,3-b]pyrrol-2-yl)methanone] | < 100 | 100 to 1000 | < 100 |
| Cc1cc2cc(C(=O)c3ccc(C(F)(F)F)cc3)sc2n1CCN1CCOCC1 [Compound 60, (5-Methyl-6-(2-morpholinoethyl)-6H-thieno[2,3-b]pyrrol-2-yl)(4-(trifluoromethyl)phenyl)methanone] | < 100 | 1000 to 10000 | 1000 to 10000 |
| COc1ccc(C(=O)c2cc3cc(C)n(CC4CCOCC4)c3s2)cc1 [Compound 62, (4-Methoxyphenyl)(5-methyl-6-((tetrahydro-2H-pyran-4-yl)methyl)-6H-thieno[2,3-b]pyrrol-2-yl)methanone] | < 100 | < 100 | < 100 |
| COc1ccc(C(=O)c2cc3cc(C)n(CCN4CCOCC4)c3s2)c(Cl)c1 [Compound 70, (2-Chloro-4-methoxyphenyl)(5-methyl-6-(2-morpholinoethyl)-6H-thieno[2,3-b]pyrrol-2-yl)methanone] | < 100 | < 100 | < 100 |
| COc1ccc(C(=O)c2cc3cc(C)n(CCN4CCCCC4)c3s2)cc1 [Compound 78, (4-Methoxyphenyl)(5-methyl-6-(2-(piperidin-1-yl)ethyl)-6H-thieno[2,3-b]pyrrol-2-yl)methanone] | < 100 | < 100 | < 100 |
| COc1ccc(C(=O)c2cc3cc(C)n(CCC4CCOCC4)c3s2)cc1 [Compound 82, (4-Methoxyphenyl)(5-methyl-6-(2-(tetrahydro-2H-pyran-4-yl)ethyl)-6H-thieno[2,3-b]pyrrol-2-yl)methanone] | < 100 | < 100 | < 100 |
| COc1ccc(C(=O)c2cc3cc(C)n(Cc4ccccc4)c3s2)cc1 [Compound 84, (6-Benzyl-5-methyl-6H-thieno[2,3-b]pyrrol-2-yl)(4-methoxyphenyl)methanone] | < 100 | 100 to 1000 | 100 to 1000 |
| COc1ccc(C(=O)c2cc3cc(C)n(CCCCl)c3s2)c(Cl)c1 [Compound 85, (2-Chloro-4-methoxyphenyl)(6-(3-chloropropyl)-5-methyl-6H-thieno[2,3-b]pyrrol-2-yl)methanone] | < 100 | < 100 | < 100 |
| COc1ccc(C(=O)c2cc3cc(C)n(CCCNS(C)(=O)=O)c3s2)c(F)c1 [Compound 87, N-(3-(2-(2-Fluoro-4-methoxybenzoyl)-5-methyl-6H-thieno[2,3-b]pyrrol-6-yl)propyl)methanesulfonamide] | < 100 | 100 to 1000 | < 100 |
| COc1ccc(C(=O)c2cc3cc(C)n(CCCNS(C)(=O)=O)c3s2)c(Cl)c1 [Compound 91, N-(3-(2-(2-Chloro-4-methoxybenzoyl)-5-methyl-6H-thieno[2,3-b]pyrrol-6-yl)propyl)methanesulfonamide] | < 100 | < 100 | < 100 |
